Laboratory results reported in patent US20140148443A1, “Novel Imidazolines as dual inhibitors of MDM2 and MDMX” (priority 2012, published 2014).

Legend:
GST-tagged MDMX = molecular target: T1, GST-tagged MDMX (Homo sapiens, UniProt O15151); assay: HTRF binding assay of GST-tagged MDMX to p53 peptide
T1 sequence (O15151 1-490): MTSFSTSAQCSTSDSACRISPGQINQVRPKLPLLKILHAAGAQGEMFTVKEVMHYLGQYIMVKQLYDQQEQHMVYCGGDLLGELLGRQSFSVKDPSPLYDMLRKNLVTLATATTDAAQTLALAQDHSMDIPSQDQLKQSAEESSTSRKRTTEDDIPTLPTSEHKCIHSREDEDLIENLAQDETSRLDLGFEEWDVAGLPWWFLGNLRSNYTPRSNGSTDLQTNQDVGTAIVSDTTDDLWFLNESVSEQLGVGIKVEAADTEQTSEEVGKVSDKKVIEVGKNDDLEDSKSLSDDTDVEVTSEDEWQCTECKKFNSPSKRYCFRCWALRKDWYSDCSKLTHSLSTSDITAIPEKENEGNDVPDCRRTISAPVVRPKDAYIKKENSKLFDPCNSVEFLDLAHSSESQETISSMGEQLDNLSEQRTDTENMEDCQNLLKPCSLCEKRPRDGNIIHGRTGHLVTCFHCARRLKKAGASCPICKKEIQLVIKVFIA

[1] = molecular target: recombinant GST-tagged MDM2 (Homo sapiens, UniProt Q00987); assay: HTRF assay of interaction between p53 peptide and GST-tagged MDM2; details: inhibition of GST-MDM2 (160 ng/ml) binding to biotinylated p53-peptide
Outline: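 Compounds were preincubated with 160 ng/ml GST-MDM2 and 90 nM N-terminally biotinylated p53-like peptide (final) in 20 mM TBS, 0.02% BSA, 1 mM DTT for 1 h at 37 °C. Eu-anti-GST antibody and streptavidin-APC were added for 30 min at room temperature; binding read as TR-FRET at 665 and 615 nm.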

Sequence of recombinant GST-tagged MDM2 (Q00987 whole entry): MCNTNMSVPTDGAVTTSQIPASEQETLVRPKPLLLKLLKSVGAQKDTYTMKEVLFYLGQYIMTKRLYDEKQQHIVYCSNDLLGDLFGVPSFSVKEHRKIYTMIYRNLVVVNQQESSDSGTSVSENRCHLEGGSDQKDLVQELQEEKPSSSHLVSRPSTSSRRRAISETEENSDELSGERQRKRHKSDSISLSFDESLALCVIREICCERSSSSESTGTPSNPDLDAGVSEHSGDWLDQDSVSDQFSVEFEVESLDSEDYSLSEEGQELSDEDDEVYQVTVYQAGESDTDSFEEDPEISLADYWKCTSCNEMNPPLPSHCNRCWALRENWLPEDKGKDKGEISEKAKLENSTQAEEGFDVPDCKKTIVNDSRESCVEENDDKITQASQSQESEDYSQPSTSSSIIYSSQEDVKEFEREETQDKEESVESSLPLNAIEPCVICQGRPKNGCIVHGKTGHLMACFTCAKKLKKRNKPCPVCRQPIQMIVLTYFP

SMILES | IC50 (GST-tagged MDMX) [nM] | IC50 [1] [nM]
CC(C)Oc1cc(Cl)c(S(=O)(=O)NC(C)(C)C)cc1C1=N[C@@](C)(c2ccc(Cl)cc2)[C@@](C)(c2ccc(Cl)cc2)N1C(=O)N1CCC(CC(N)=O)CC1 [Example 60, 2-{1-[(4S,5R)-2-(5-tert-Butylsulfamoyl-4-chloro-2-isopropoxy-phenyl)-4,5-bis-(4-chloro-phenyl)-4,5-dimethyl-4,5-dihydro-imidazole-1-carbonyl]-piperidin-4-yl}-acetamide] | 570 | 15
CC(C)Oc1cc(Cl)c(S(=O)(=O)N2C[C@H]3CC[C@@H](C2)O3)cc1C1=N[C@@](C)(c2ccc(Cl)cc2)[C@@](C)(c2ccc(Cl)cc2)N1C(=O)N1CCC(CC(N)=O)CC1 [Example 61, 2-{1-[(4S,5R)-2-{4-Chloro-2-isopropoxy-5-[(1R,5S)-(8-oxa-3-aza-bicyclo[3.2.1]oct-3-yl)sulfonyl]-phenyl}-4,5-bis-(4-chloro-phenyl)-4,5-dimethyl-4,5-dihydro-imidazole-1-carbonyl]-piperidin-4-yl}-acetamide] | 267 | 9.1
CC(C)Oc1cc(Cl)c(S(=O)(=O)N2C[C@H]3CC[C@@H](C2)O3)cc1C1=N[C@@](C)(c2ccc(Cl)cc2)[C@@](C)(c2ccc(Cl)cc2)N1C(=O)N1CCN(CCCS(C)(=O)=O)CC1 [Example 62, [(4S,5R)-2-{4-Chloro-2-isopropoxy-5-[(1R,5S)-(8-oxa-3-aza-bicyclo[3.2.1]oct-3-yl)sulfonyl]-phenyl}-4,5-bis-(4-chloro-phenyl)-4,5-dimethyl-4,5-dihydro-imidazol-1-yl]-[4-(3-methanesulfonyl-propyl)-piperazin-1-yl]-methanone] | 193 | 4.8
CC(C)Oc1cc(Cl)c(S(=O)(=O)NC(C)(C)C)cc1C1=N[C@@](C)(c2ccc(Cl)cc2)[C@@](C)(c2ccc(Cl)cc2)N1C(=O)N1CCN(CCCS(C)(=O)=O)CC1 [Example 63, 5-{(4S,5R)-4,5-Bis-(4-chloro-phenyl)-1-[4-(3-methanesulfonyl-propyl)-piperazine-1-carbonyl]-4,5-dimethyl-4,5-dihydro-1H-imidazol-2-yl}-N-tert-butyl-2-chloro-4-isopropoxy-benzenesulfonamide] | 212 | 4.4
CC(C)Oc1cc(Cl)c(S(N)(=O)=O)cc1C1=N[C@@](C)(c2ccc(Cl)cc2)[C@@](C)(c2ccc(Cl)cc2)N1C(=O)N1CCC(CC(N)=O)CC1 [Example 64, 2-{1-[(4S,5R)-2-(4-Chloro-2-isopropoxy-5-sulfamoyl-phenyl)-4,5-bis-(4-chloro-phenyl)-4,5-dimethyl-4,5-dihydro-imidazole-1-carbonyl]-piperidin-4-yl}-acetamide] | 283 | 6.2
CC(C)Oc1cc(Cl)c(S(N)(=O)=O)cc1C1=N[C@@](C)(c2ccc(Cl)cc2)[C@@](C)(c2ccc(Cl)cc2)N1C(=O)N1CCN(CCCS(C)(=O)=O)CC1 [Example 65, 5-{(4S,5R)-4,5-Bis-(4-chloro-phenyl)-1-[4-(3-methanesulfonyl-propyl)-piperazine-1-carbonyl]-4,5-dimethyl-4,5-dihydro-1H-imidazol-2-yl}-2-chloro-4-isopropoxy-benzenesulfonamide] | 337 | 7.7
